A short description of series [1]: Dissolution test according to USP 26 at pH 6.8. It is filed as physicochemical. The protocol: A dissolution test is carried out on the microcapsules thus obtained comparing them with anhydrous theophylline in crystalline form.
The dissolution test was performed according to USP 26.
A dissolution test is carried out on the microcapsules obtained in Examples 5 and 6 according to the method previously described for Example 4
Dissolution test was performed according to USP 26
A dissolution test is carried out on the microcapsules thus obtained compared to fluoxetine raw material.
Dissolution test was performed according to USP 26.

Series [2] is described as follows: Dissolution test according to USP 26 at pH 1.2. The format is physicochemical. As to conditions: caffeine. The protocol: The microcapsutes obtained, when analysed with an electronic microscope (FIG. 3), show a distribution of the particles of the active principle within the polymeric membrane in the form of solid particles that are prevalently disposed at the interface between the polymer and the core. […] Dissolution test was performed according to USP 26.

Regarding `Cn1c(=O)c2[nH]cnc2n(C)c1=O` [Anhydrous Theophylline], the “Dissolution % at pH 6.8, 5 min” value in series [1] (theophylline, USP 26) turned out to be 65%. For the same compound, the “Dissolution % at pH 6.8, 10 min” value in series [1] (theophylline, Table of Example 7, lower head) is reported as 100%. Moreover, the “Dissolution % at pH 6.8, 15 min” value in series [1] (15 min, theophylline, USP 26) stood at 100%.

`Cn1c(=O)c2c(ncn2C)n(C)c1=O` [Caffeine]: the “Dissolution % at pH 1.2, 60 min” value in series [2] was 100%.

Turning to `CNCCC(Oc1ccc(C(F)(F)F)cc1)c1ccccc1` (stereo not shown) [Fluoxetine], in series [1] (fluoxetine, USP 26), the “Dissolution % at pH 6.8, 5 min” value stood at 55% and the “Dissolution % at pH 6.8, 10 min” value is 75%. Moreover, the “Dissolution % at pH 6.8, 20 min” value in series [1] (20 min, fluoxetine, USP 26) is listed as 100%.

Source of the values: patent US20130156934A1, “MICROCAPSULES BY COACERVATION CONTAINING A PHARMACEUTICAL INCORPORATED IN THE COATING POLYMER” (APTALIS PHARMA LIMITED, priority 2003, published 2013).
